Assay [1] addresses T1, Human vitronectin receptor (αvβ3) (Homo sapiens, UniProt P05106+P06756).
T1 construct: Human vitronectin receptor (αvβ3) was purified from human placenta; from tissue; host or cells: human placenta
The experiment in a line: Vitronectin adhesion assay: solid phase receptor assay, competition with biotinylated vitronectin. Type of assay: binding. The settings on record: purified human vitronectin receptor; 1 nM biotinylated vitronectin. How it is done:
Vitronectin Adhesion Assay
Human vitronectin receptor (αvβ3) was purified from human placenta as previously described [Pytela et al., Methods in Enzymology, 144:475-489 (1987)]. Human vitronectin was purified from fresh frozen plasma as previously described [Yatohgo et al., Cell Structure and Function, 13:281-292 (1988)]. Biotinylated human vitronectin was prepared by coupling NHS-biotin from Pierce Chemical Company (Rockford, Ill.) to purified vitronectin as previously described [Charo et al., J. Biol. Chem., 266(3):1415-1421 (1991)]. Assay buffer, OPD substrate tablets, and RIA grade BSA were obtained from Sigma (St. Louis, Mo.). Anti-biotin antibody was obtained from Calbiochem (La Jolla, Calif.). Linbro microtiter plates were obtained from Flow Labs (McLean, Va.). ADP reagent was obtained from Sigma (St. Louis, Mo.).
This assay was essentially the same as previously reported [Niiya et al., Blood, 70:475-483 (1987)]. The purified human vitronectin receptor (αvβ3) was diluted from stock solutions to 1.0 μg/mL in Tris-buffered saline containing 1.0 mM Ca^++, Mg^++, and Mn^++, pH 7.4 (TBS^+++). The diluted receptor was immediately transferred to Linbro microtiter plates at 100 μL/well (100 ng receptor/well). The plates were sealed and incubated overnight at 4° C. to allow the receptor to bind to the wells. All remaining steps were at room temperature. The assay plates were emptied and 200 μL of 1% RIA grade BSA in TBS^+++ (TBS^+++/BSA) were added to block exposed plastic surfaces. Following a 2 hour incubation, the assay plates were washed with TBS^+++ using a 96 well plate washer. Logarithmic serial dilution of the test compound and controls were made starting at a stock concentration of 2 mM and using 2 nM biotinylated vitronectin in TBS^+++/BSA as the diluent. This premixing of labeled ligand with test (or control) ligand, and subsequent transfer of 50 μL aliquots to the assay plate was carried out with a CETUS Propette robot; the final concentration of the labeled ligand was 1 nM and the highest concentration of test compound was 1.0×10^−4 M. The competition occurred for two hours after which all wells were washed with a plate washer as before. Affinity purified horseradish peroxidase labeled goat anti-biotin antibody was diluted 1:3000 in TBS^+++/BSA and 125 μL were added to each well. After 30 minutes, the plates were washed and incubated with OPD/H2O2 substrate in 100 mM/L Citrate buffer, pH 5.0. The plate was read with a microtiter plate reader at a wavelength of 450 nm and when the maximum-binding control wells reached an absorbance of about 1.0, the final A450 were recorded for analysis. The data were analyzed using a macro written for use with the EXCELJ spreadsheet program. The mean, standard deviation, and % CV were determined for duplicate concentrations. The mean A450 values were normalized to the mean of four maximum-binding controls (no competitor added)(B-MAX). The normalized values were subjected to a four parameter curve fit algorithm [Rodbard et al., Int.

For assay [2], the target named is T2, Human fibrinogen receptor IIb/IIIa (Homo sapiens, UniProt P05106+P08514).
T2 construct: Human fibrinogen receptor ([…]) was purified from outdated platelets; from tissue; host or cells: outdated human platelets
The experiment in a line: Purified IIb/IIIa receptor assay: solid phase receptor assay, competition with biotinylated vitronectin. The format is binding. The following applies: 1 nM biotinylated vitronectin. An excerpt: Purified IIb/IIIa Receptor Assay
Human fibrinogen receptor ([…]) was purified from outdated platelets. (Pytela, R., Pierschbacher, M. D., Argraves, S., Suzuki, S., and Rouslahti, E. “Arginine-Glycine-Aspartic acid adhesion receptors”, Methods in Enzymology 144(1987):475-489.) Human vitronectin was purified from fresh frozen plasma as described in Yatohgo, T., Izumi, M., Kashiwagi, H., and Hayashi, M., “Novel purification of vitronectin from human plasma by heparin affinity chromatography,” Cell Structure and Function 13(1988):281-292. Biotinylated human vitronectin was prepared by coupling NHS-biotin from Pierce Chemical Company (Rockford, Ill.) to purified vitronectin as previously described. (Charo, I. F., Nannizzi, L., Phillips, D. R., Hsu, M. A., Scarborough, R. M., “Inhibition of fibrinogen binding to GP IIb/IIIa by a GP IIIa peptide”, J. Biol. Chem. 266(3)(1991): 1415-1421.) Assay buffer, OPD substrate tablets, and RIA grade BSA were obtained from Sigma (St. Louis, Mo.). Anti-biotin antibody was obtained from Calbiochem (La Jolla, Calif.). Linbro microtiter plates were obtained from Flow Labs (McLean, Vs.). ADP reagent was obtained from Sigma (St. Louis, Mo.).
This assay is essentially the same reported in Niiya, K., Hodson, E., Bader, R., Byers-Ward, V. Koziol, J. A., Plow, E. F. and Ruggeri, Z. M., “Increased surface expression of the membrane glycoprotein IIb/IIIa complex induced by platelet activation: Relationships to the binding of fibrinogen and platelet aggregation”, Blood 70(1987):475-483. The purified human fibrinogen receptor ([…]) was diluted from stock solutions to 1.0 μg/mL in Tris-buffered saline containing 1.0 mM Ca^++, Mg^++, and Mn^++, pH 7.4 (TBS^+++). The diluted receptor was immediately transferred to Linbro microtiter plates at 100 μL/well (100 ng receptor/well). The plates were sealed and incubated overnight at 4° C. to allow the receptor to bind to the wells. All remaining Steps were at room temperature. The assay plates were emptied and 200 μL of 1% RIA grade BSA in TBS^+++ (TBS^+++/BSA) were added to block exposed plastic surfaces. Following a 2 hour incubation, the assay plates were washed with TBS^+++ using a 96 well plate washer. Logarithmic serial dilution of the test compound and controls were made starting at a stock concentration of 2 mM and using 2 nM biotinylated vitronectin in TBS^+++/BSA as the diluent. This premixing of labeled ligand with test (or control) ligand, and subsequent transfer of 50 μL aliquots to the assay plate was carried out with a CETUS Propette robot; the final concentration of the labeled ligand was 1 nM and the highest concentration of test compound was 1.0×10^−4 M. The competition occurred for two hours after which all wells were washed with a plate washer as before. Affinity purified horseradish peroxidase labeled goat anti-biotin antibody was diluted 1:3000 in TBS^+++/BSA and 125 μL were added to each well. After 30 minutes, the plates were washed and incubated with […] substrate in 100 mM/L citrate buffer, pH 5.0. The plate was read with a microtiter plate reader at a wavelength of 450 nm and when the maximum-binding control wells reached an absorbance of about 1.0, the final A450 were recorded for analysis. The data were analyzed using a macro written for use with the EXCELJ spreadsheet program. The mean, standard deviation, and % CV were determined for duplicate concentrations. The mean A450 values were normalized to the mean of four maximum-binding controls (no competitor added)(B-MAX). The normalized values were subjected to a four parameter curve fit algorithm, [Robard et al., Int. Atomic Energy Agency.

pIC50: −log10 of the molar value. Structures can show the parent of a compound that is named as a salt.

What is called pIC50 is −log10 of the IC50, conventionally taken in molar units. Read a low pIC50 as a high IC50.

Consider `COc1ncc(N=C2NCCN2)cc1C(=O)NCC(=O)NC(CC(=O)O)c1cc(Cl)cc(Cl)c1O` (stereo not drawn) [Example 22, N-[[(4,5,-dihydro-1H-imidazol-2-yl)amino]-2-methoxy-3-pyridinyl]carbonyl]glycyl-3-(3,5-dichloro-2-hydroxyphenyl)-β-alanine, (trifluoroacetate) salt], for which the pIC50 in assay [1] is 8.16; in assay [2], 5.77.

`O=C(O)CC(NC(=O)CNC(=O)c1cncc(NC2=NCCN2)c1)c1cc(Cl)cc(Cl)c1O` (centres unmarked) [Example 3]: the pIC50 was 9.39 in assay [1] and 6.53 in assay [2].

`O=C(O)CC(NC(=O)CNC(=O)c1cncc(NC2=NCCN2)c1)c1cc(Cl)cc(I)c1O` (centres unmarked) [Example 5]: the pIC50 in assay [1] was 9.38; in assay [2], 6.05.

Turning to `O=C(O)C[C@H](NC(=O)CNC(=O)c1cc(NC2=NCC(O)CN2)[nH]c(=O)c1)c1cc(Cl)cc(Br)c1O` (some centres unmarked) [Example 43], the pIC50 in assay [1] is 8.19; in assay [2], 5.12.

As to `O=C(O)C[C@H](NC(=O)CNC(=O)c1cncc(NC2=NCC(O)CN2)c1)c1cc(Br)cc(I)c1O` (some centres unmarked) [Example 26], the pIC50 is 9.15 in assay [1] and 6.08 in assay [2].

As for `O=C(O)CC(NC(=O)CNC(=O)c1cncc(NC2=NCCN2)c1)c1cc(Cl)cc(Br)c1O` (centres unmarked) [Example 4], the pIC50 in assay [1] is 9.13; in assay [2], 6.24.

As for `O=C(O)C[C@@H](NC(=O)CNC(=O)c1c[nH]c(=O)c(NC2=NCC(O)CN2)c1)c1cc(Cl)cc(Cl)c1O` (some centres unmarked) [Example 41], the pIC50 in assay [1] is 7.99; in assay [2] it was 4.45.

`Cc1sc(C(=O)NCC(=O)N[C@@H](CC(=O)O)c2cc(Cl)cc(Cl)c2O)cc1NC1=NCC(O)CN1` (stereo partly drawn) [Example 14, (3S)-N-[[5-methyl-4-[(1,4,5,6-tetrahydro-5-hydroxy-2-pyrimidinyl)amino]-2-thienyl]carbonyl]glycyl-3-(3,5-dichloro-2-hydroxyphenyl)-β-alanine, trifluoroacetate salt]: the pIC50 was 7.91 in assay [1] and 6.11 in assay [2].

For the compound `O=C(O)C[C@H](NC(=O)CNC(=O)c1sccc1CNC1=NCC(O)CN1)c1cc(Cl)cc(Cl)c1O` (some centres unmarked) [Example 45], the pIC50 is 5.96 in assay [1] and 5.78 in assay [2].

For the compound `Nc1ncc(C(=O)NCC(=O)NC(CC(=O)O)c2cc(Cl)cc(Cl)c2O)cc1NC1=NCC(O)CN1` (centres unmarked) [Example 44], the pIC50 in assay [1] is 7.38; in assay [2] it was 5.97.

As for `N=C(N)Nc1cncc(C(=O)NCC(=O)NC(CC(=O)O)c2cc(Cl)cc(Br)c2O)c1` (centres unmarked) [Example 1], the pIC50 is 8.80 in assay [1] and 6.50 in assay [2].

`O=C(O)C[C@H](NC(=O)CNC(=O)c1c[nH]c(=O)c(NC2=NCC(O)CN2)c1)c1cc(Br)cc(Cl)c1O` (some centres unmarked) [Example 34]: the pIC50 was 9.47 in assay [1] and 5.92 in assay [2].

Turning to `O=C(O)C[C@H](NC(=O)CNC(=O)c1c[nH]c(=O)c(NC2=NCC(O)CN2)c1)c1cc(Cl)cc(Br)c1O` (some centres unmarked) [Example 33], the pIC50 in assay [1] is 9.70; in assay [2], 6.28.

With `O=C(O)C[C@H](NC(=O)CNC(=O)c1cncc(N=C2NCC(O)CN2)c1)c1cc(Br)cc(Br)c1O` (some centres unmarked) [Example 11], the pIC50 was 9.47 in assay [1] and 6.34 in assay [2].

On to `O=C(O)CC(NC(=O)CNC(=O)c1cnc(Cl)c(NC2=NCCN2)c1)c1cc(Cl)cc(Cl)c1O` (stereo not drawn) [Example 19, N-[[6-chloro-5-[(4,5,-dihydro-1H-imidazol-2-yl)amino]-3-pyridinyl]carbonyl]-glycyl-3-(3,5-dichloro-2-hydroxyphenyl)-β-alanine, (trifluoroacetate) salt, monohydrate], for which the pIC50 is 8.53 in assay [1] and 5.60 in assay [2].

With `O=C(O)C[C@H](NC(=O)CNC(=O)c1c[nH]c(=O)c(NC2=NCC(O)CN2)c1)c1cc(Br)cc(Br)c1` (some centres unmarked) [Example 35], the pIC50 is 9.85 in assay [1] and 6.47 in assay [2].
